# Patent US4919937A, “Percutaneous administration of tamoxifen” (priority 1984, dated 1990)
# Experiments:
# [1] = passage through the liver; cited from earlier work
# [2] = test system: receptor molecules in cancerous mammary tumors; test: percutaneous application on the skin overlying cancerous mammary tumors; assay type: in vivo
# [3] = tamoxifen per os; 4-hydroxytamoxifen orally or parenterally, other than percutaneously; cited from earlier work
# [4] = tracer doses of tritiated 4-hydroxytamoxifen applied in alcoholic solution 24 hours before excision of cancerous breasts; assay type: in vivo; conditions: human, breast tissue, topical or ocular, read-out: portion of the radioactivity metabolized to unidentified products
# [5] = test system: protein structures corresponding to hormonal receptors; test: as above; assay type: in vivo
# [6] = radioactive 4-hydroxytamoxifen applied on the skin of a healthy subject, urinary radioactivity in 15 days and circulating blood; assay type: in vivo
# Text: A small portion of the radioactivity is metabolized to unidentified products (3%). In parallel, this same product in radioactive form was applied on the skin of a healthy subject, and a calculation was made of the radioactivity appearing in the urine in 15 days following administration of the product. […] It is only as a secondary effect that it reaches the liver, where it is inactivated.
# cutaneous absorption = assay type: in vivo; conditions: skin, topical or ocular; percutaneous; read-out: coefficient of cutaneous absorption
# Text: (§1) The daily doses of product to be administered are easy to calculate in terms of the absorption coefficients of the drugs and the doses which it is desired to obtain for 4-hydroxytamoxifen and progesterone at the level of their receptor molecules.
# solubility in alcohol = assay type: physicochemical
# Text: as §1
# [7] = cited from earlier work; for hepatic by-pass after percutaneous administration: alcoholic solution
# progesterone receptors = test: tracer doses of tritiated progesterone administered percutaneously under the same conditions; assay type: in vivo
# Method: In another experiment, tracer doses of tritiated progesterone were administered under the same conditions as 4-hydroxytamoxifen.
# progesterone receptor = conditions: common knowledge; cited from earlier work
smiles,measurement,setting,value
"CC/C(=C(\c1ccccc1)c1ccc(OCCN(C)C)cc1)c1ccccc1 [tamoxifen, 1-[4-(2-N-dimethylaminoethoxy)phenyl]-1,2diphenylbut-1-(Z)-ene]",metabolism/degradation after oral administration,[1],converted during its passage through the liver to numerous metabolites
same,activation to the 4-hydroxy derivative by the percutaneous route,"[2]; percutaneous, breast",cannot be activated to its 4-hydroxy derivative by the percutaneous route
same,harmful side effects: stimulation of the ovaries,[3],a paradoxical stimulation of the ovaries
"CC/C(=C(\c1ccc(O)cc1)c1ccc(OCCN(C)C)cc1)c1ccccc1 [4-hydroxytamoxifen, 1-[4-(2-N-dimethylaminoethoxy)phenyl]-1-(4-hydroxyphenyl)-2-phenylbut-1-(Z)-ene]",metabolised at 24 h,[4],3%
same,form found at the hormonal receptors,[5],appeared in its original form at the level of the protein structures corresponding to hormonal receptors
same,product in circulating blood,[6]; circulating blood,only traces of the product are detectable
same,destruction of the product from urinary elimination,"[6]; healthy subject, urine, 15 days",weak and gradual destruction of the product
same,Fa,cutaneous absorption,~1%
same,metabolism/degradation after oral administration,[1],more rapidly degraded than tamoxifen
same,passage through the cutaneous barrier and uptake on receptor molecules in tumors,[2]; 60% strength alcoholic solution,capable of passing through the cutaneous barrier and being taken up on the receptor molecules in these tumors
same,harmful side effects: stimulation of the ovaries,[3],detrimental paradoxical stimulation of the ovaries
same,solubility in alcohol,solubility in alcohol,soluble in alcohol
C[C@]12CC[C@H]3[C@@H](CCC4=CC(=O)CC[C@@]43C)[C@@H]1CC[C@@H]2O [testosterone],hepatic by-pass after percutaneous administration,[7],hepatic by-passes thus produced were demonstrated
CC(=O)[C@H]1CC[C@H]2[C@@H]3CCC4=CC(=O)CC[C@]4(C)[C@H]3CC[C@]12C [progesterone],radioactivity in the blood,progesterone receptors; blood,No radioactivity circulates in the blood
same,uptake by specific receptors and inactivation,progesterone receptors; conclusion,taken up by specific receptors and that it is inactivated for the most part in situ
same,"form found, binding to the progesterone receptors and metabolism","progesterone receptors; tritiated, percutaneous, excised cancerous breast","appeared in its original form, partly bound to the progesterone receptors and partly metabolized"
same,metabolites in the urine,progesterone receptors; urine,various metabolites of progesterone appeared in the 56 hours following the experiment
same,topical retention,[7]; alcoholic solution or 60% strength aqueous alcoholic gel,48 h
same,hepatic by-pass after percutaneous administration,[7],hepatic by-passes thus produced were demonstrated
same,Fa,cutaneous absorption,10%
same,metabolism/degradation after oral administration,[1],completely destroyed during its passage through the liver
same,action on the progesterone receptor,progesterone receptor,"binds to is own receptor, which it activates"
same,solubility in alcohol,solubility in alcohol,soluble in alcohol
